Peptide text beside a SMILES is read from it. * marks the point of attachment. MeOSuc = COC(=O)CCC(=O)*; Cbz = O=C(OCc1ccccc1)*; Boc = CC(C)(C)OC(=O)*; Bz = O=C(c1ccccc1)*
Columns and labels:
[1] = test system: fetal rat forearm bones (radius and ulna), bone resorption; experiment: Bone resorption suppressing action (^45 Ca release from cultured fetal rat forearm bones, method of Raisz); assay type: cell-based, Sprague-Dawley rat; details: 48 h, cultured two days, control = no test compound, mean of five bone fragments, read-out: Bone Resorption Inhibitory Activity [^45 Ca Release Rate (Percent to Control)]; for activity at 10 µg/mL: Concentration of Compound 10 μg/ml; for activity at 10 µM: Concentration of Compound 10 μM
Source text: Specifically, one Sprague-Dawley rat, at 18 days of gestation, was given 50 μCi of ^45 Ca (calcium isotope, in CaCl2 solution) by subcutaneous injection. On the following day, the animal was laparotomized and fetal rats aseptically removed. Both forearm bones (radius and ulna) were cut out from the body of each fetus under an anatomical microscope, and connective tissue and cartilages were removed to the maximum possible extent, to prepare bone culture samples. Each bone fragment was pre-cultured at 37° C. for 24 hours in 0.6 ml of BGJb medium (Fitton-Jackson modification, GIBCO Laboratories, United States) prepared by adding bovine serum albumin (final concentration 2 mg/ml), after which it was transferred to the same medium as above but containing each compound (final concentration 10 μg/ml or 10 μM) and cultured for two more days. ^45 Ca radioactivity in the medium and ^45 Ca radioactivity in the bone were then measured, and the percent ratio of ^45 Ca released from the bone to the medium was calculated using the following equation: [formula]
For control, bone fractions from fetuses of the same litter were cultured for two days in the absence of the test compound. The mean q standard deviation for the values from five bone fragments in each group were calculated, and their percent ratios to the control were calculated.

human cathepsin L = target: T1, human cathepsin L (Homo sapiens, UniProt P07711); experiment: Determination of human cathepsin L inhibitory activity (recombinant enzyme, Z-Phe-Arg-NMec substrate); assay type: biochemical; details: pH 5.5, 30° C., 10 minutes
T1 construct: made in house; host or cells: mouse myeloma Sp2/0 cells stably transformed with pTBN-HCLneo (Sp-HCL26); purified from serum-free culture supernatant on CM-Sephadex C-50 and Mono S
T1 sequence (P07711 114-333): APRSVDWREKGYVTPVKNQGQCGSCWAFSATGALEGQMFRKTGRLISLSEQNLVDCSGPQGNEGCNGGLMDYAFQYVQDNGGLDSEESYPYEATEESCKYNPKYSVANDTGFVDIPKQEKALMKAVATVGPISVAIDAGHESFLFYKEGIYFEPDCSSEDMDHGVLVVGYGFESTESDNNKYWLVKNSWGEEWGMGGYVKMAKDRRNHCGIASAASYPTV
Experimental: This fraction was applied to a Mono S column (HR5/5) of an FPLC system (produced by Pharmacia), followed by column washing and human cathepsin L elution in the same manner as above.
Experimental Example 8: Determination of human cathepsin L inhibitory activity
The recombinant human cathepsin L purified in Experimental Example 7 was diluted with a diluent [0.1% Brij 35 (produced by Sigma Chemical Company)] to a concentration of 1 μg/ml. To 1 μl of this enzyme dilution, 46 μl of the diluent, 2 μl of 0.1M DTT and 25 μl of an activator/buffer (340 mM sodium acetate, 60 mM acetic acid, 4 mM disodium EDTA, pH 5.5) were added. To this mixture were added a 1 μl sample, diluted to 10^-2 M with dimethyl sulfoxide (DMSO), and 25 μl of 20 μM Z-Phe-Arg-NMec (enzyme substrate solution), followed by incubation at 30° C. for 10 minutes, after which 100 μl of a reaction stopper (100 mM sodium monochloroacetate, 30 mM sodium acetate, 70 mM acetic acid, pH 4.3) was added. This reaction was carried out on a 96-well fluoroplate (produced by Labo Systems).
After the reaction was stopped, the fluorescence intensity of free aminomethylcoumarin was determined at a wavelength of 450 nm (excitation wavelength=365 nm), using a fluorometer FCA (produced by Baxter). For a control, 1 μl of sample-free DMSO was added instead; the fluorometric value obtained from this control reaction was taken as 100% activity.

Row | SMILES | IC50 (human cathepsin L) | activity at 10 µg/mL [1] | activity at 10 µM [1]
1 | CC[C@H](C)[C@H](NS(=O)(=O)c1cccc2ccccc12)C(=O)N[C@H](CO)Cc1c[nH]c2ccccc12 [Example 3, N-(1-naphthylsulfonyl)-(L)-isoleucyl-(L)-tryptophanol] |  | 49% | 
2 | O=C(N[C@H](CO)Cc1c[nH]c2ccccc12)C(Cc1ccccc1)Cc1ccccc1 [Example 26, N-dibenzylacetyl-(L)-tryptophanol] |  |  | 79%
3 | CC(C)[C@H](NC(=O)c1ccccc1)C(=O)N[C@H](CO)Cc1c[nH]c2ccccc12 [Example 38] |  |  | 76%
4 | CC[C@H](C)[C@H](NC(=O)OCc1ccccc1)C(=O)N[C@H](CO)Cc1cn(C(C)(C)C)c2ccccc12 [Example 59] |  |  | 67%
5 | Cc1ccc(CC(Cc2ccccc2)C(=O)N[C@H](CO)Cc2c[nH]c3ccccc23)cc1 (stereo partly shown) [Example 84] |  |  | 74%
6 | CC[C@H](C)[C@H](NS(=O)(=O)c1cccc2ccccc12)C(=O)N[C@H](C=O)Cc1c[nH]c2ccccc12 [Example 103, N-(1-naphthylsulfonyl)-(L)-isoleucyl-(L)-tryptophanal] |  | 49% | 
7 | CC[C@H](C)[C@H](NC(=O)OC(C)(C)C)C(=O)N[C@H](C(=O)N[C@H](C=O)Cc1c[nH]c2ccccc12)[C@@H](C)CC [Example 109] (Boc-Ile-Ile-Trp-aldehyde) | 0.01 µM | 38% | 
8 | CC[C@H](C)[C@H](NC(=O)CCC(=O)OC)C(=O)N[C@H](C(=O)N[C@H](C=O)Cc1c[nH]c2ccccc12)[C@@H](C)CC [Example 111] (MeOSuc-Ile-Ile-Trp-aldehyde) | 0.014 µM | 32% | 
9 | CC[C@H](C)[C@H](NC(=O)OCCC12CC3CC(CC(C3)C1)C2)C(=O)N[C@H](C(=O)N[C@H](C=O)Cc1c[nH]c2ccccc12)[C@@H](C)CC [Example 112] | 0.38 µM | 43% | 
10 | CC[C@H](C)[C@H](NC(=O)NCCC1CCCCC1)C(=O)N[C@H](C=O)Cc1c[nH]c2ccccc12 [Example 115, N-[(2-cyclohexylethyl)carbamoyl]-(L)-isoleucyl-(L)-tryptophanal] | 0.048 µM |  | 
11 | C[C@H](NS(=O)(=O)c1cccc2ccccc12)C(=O)N[C@H](C=O)Cc1c[nH]c2ccccc12 [Example 124] |  |  | 79%
12 | CC(C)[C@H](NC(=O)c1ccccc1)C(=O)N[C@H](C=O)Cc1c[nH]c2ccccc12 [Example 134] (Bz-Val-Trp-aldehyde) |  |  | 66%
13 | CCCC(CCC)C(=O)N[C@H](C(=O)N[C@H](C=O)Cc1c[nH]c2ccccc12)C(C)C [Example 135, N-(2-propylpentanoyl)-(L)-valyl-(L)-tryptophanal] | 0.001 µM |  | 45%
14 | CCCC(CCC)C(=O)N[C@@H](CC(C)C)C(=O)N[C@H](C=O)Cc1c[nH]c2ccccc12 [Example 144] | 0.0024 µM |  | 60%
15 | CC[C@H](C)[C@H](NS(=O)(=O)c1cccc2ccccc12)C(=O)N[C@@H](C)C=O [Example 153, N-(1-naphthylsulfonyl)-(L)-isoleucylalanal] |  |  | 74%
16 | CC[C@H](C)[C@H](NC(=O)OCc1ccccc1)C(=O)N[C@H](C=O)Cc1ccc(OC(C)C)cc1 [Example 157] |  |  | 72%
17 | CC[C@H](C)[C@H](NS(=O)(=O)c1cccc2ccccc12)C(=O)N[C@H](C=O)Cc1ccc(O)cc1 [Example 158] |  |  | 65%
18 | CCOP(=O)(Cc1ccc(NC(=O)C(Cc2ccccc2)C(=O)N[C@H](C=O)Cc2c[nH]c3ccccc23)cc1)OCC (stereo partly shown) [Example 188] | 0.037 µM |  | 
19 | O=C[C@H](Cc1c[nH]c2ccccc12)NC(=O)C(Cc1ccccc1)C(=O)N(Cc1ccccc1)Cc1ccccc1 (stereo partly shown) [Example 190] | 0.055 µM |  | 

More lines, main results first:

Row | IC50 (human cathepsin L) | SMILES | activity at 10 µg/mL [1] | activity at 10 µM [1]
20 | 0.011 µM | CC[C@H](C)[C@H](NC(=O)OCc1ccccc1)C(=O)N[C@H](C=O)Cc1c[nH]c2ccccc12 [Example 107] |  | 
21 | 0.0054 µM | CC[C@H](C)[C@H](NC(=O)OCc1ccccc1)C(=O)N[C@H](C(=O)N[C@H](C=O)Cc1c[nH]c2ccccc12)[C@@H](C)CC [Example 108, N-(benzyloxycarhonyl)-(L)-isoleucyl-(L)-isoleucyl-(L)-tryptophanal] (Cbz-Ile-Ile-Trp-aldehyde) | 42% | 
22 | 0.016 µM | CC[C@H](C)[C@H](NC(=O)[C@@H](NS(=O)(=O)c1cccc2ccccc12)[C@@H](C)CC)C(=O)N[C@H](C=O)Cc1c[nH]c2ccccc12 [Example 110, N-(1-naphthylsulfonyl)-(L)-isoleucyl-(L)-isoleucyl-(L)-tryptophanal] | 46% | 
23 | 0.22 µM | CC[C@H](C)[C@H](NC(=O)[C@@H](NS(=O)(=O)c1cccc2ccccc12)[C@@H](C)CC)C(=O)NC(C=O)Cc1cccc2ccccc12 (stereo partly drawn) [Example 118, N-(1naphthylsulfonyl)-(L)-isoleucyl-(L)-isoleucyl-(DL)-(1-naphthyl)alaninal] |  | 
24 | 0.032 µM | O=C[C@H](Cc1c[nH]c2ccccc12)NC(=O)C(Cc1ccccc1)Cc1ccccc1 [Example 122, N-dibenzylacetyl-(L)-tryptophanal] |  | 73%
25 | 0.019 µM | O=C[C@H](Cc1c[nH]c2ccccc12)NC(=O)[C@H](Cc1ccccc1)NC(=O)c1ccccc1 [Example 128] (Bz-Phe-Trp-aldehyde) |  | 73%
26 | 0.085 µM | CCCC(Sc1ccccc1)C(=O)N[C@H](C=O)Cc1c[nH]c2ccccc12 (stereo partly shown) [Example 129] |  | 
27 | 0.00099 µM | CC(C)[C@H](NC(=O)OCc1ccccc1)C(=O)N[C@H](C=O)Cc1c[nH]c2ccccc12 [Example 132] (Cbz-Val-Trp-aldehyde) |  | 74%
28 | 0.0017 µM | CC(C)C[C@H](NC(=O)c1ccccc1)C(=O)N[C@H](C=O)Cc1c[nH]c2ccccc12 [Example 143] |  | 
29 | 0.0061 µM | CC[C@H](C)[C@H](NC(=O)OC(C)(C)C)C(=O)N[C@H](C=O)Cc1cn(C)c2ccccc12 [Example 150] |  | 
30 | 0.00095 µM | CC[C@H](C)[C@H](NS(=O)(=O)c1cccc2ccccc12)C(=O)N[C@H](C=O)Cc1ccccc1 [Example 154, N-(1-naphthylsulfonyl)-(L)-isoleucyl-(L)-phenylalaninal] |  | 
31 | 0.043 µM | CC[C@@H](C=O)NC(=O)C(Cc1ccccc1)Cc1ccccc1 [Example 167] |  | 
32 | 0.026 µM | CC(C)[C@@H](C=O)NC(=O)C(Cc1ccccc1)Cc1ccccc1 [Example 168] |  | 
33 | 0.019 µM | CC(C)C[C@H](NS(=O)(=O)c1cccc2ccccc12)C(=O)N[C@@H](Cc1c[nH]c2ccccc12)C(=O)NCC=O [Example 175] |  | 
34 | 0.0047 µM | O=C[C@H](Cc1c[nH]c2ccccc12)NC(=O)C(Cc1ccccc1)C(=O)NCc1ccccc1 (stereo partly shown) [Example 191] |  | 
35 | 0.0042 µM | O=C[C@H](Cc1c[nH]c2ccccc12)NC(=O)C(c1ccccc1)c1ccccc1 [Example 192] |  | 
36 | 0.0039 µM | CC[C@H](C)[C@H](NC(=O)c1cc(=O)c2ccccc2o1)C(=O)N[C@H](C=O)Cc1c[nH]c2ccccc12 [Example 193] |  | 

— patent US5955491A, “Method for treating osteoporosis” (Takeda Chemical Industries, Ltd., priority 1993, dated 1999)
